{
  "source": "patent US20090311317A1",
  "about": "“MODIFIED RELEASE TOLTERODINE FORMULATIONS” (Capricorn Pharma Inc., priority 2008, published 2009)",
  "origin": "cited, not measured here",
  "key": {"[1]": {"test_system": "bladder", "settings": "versus oxybutynin"}, "[2]": {"test_system": "muscarinic receptors of the salivary gland", "settings": "versus oxybutynin"}},
  "note": "Where a name gives a salt, the structure may show the parent alone.",
  "data": [
    {"smiles": "Cc1ccc(O)c([C@@H](CCN(C(C)C)C(C)C)c2ccccc2)c1", "note": "[tolterodine, (+)-N,N-diisopropyl-3-(2-hydroxy-5-methylphenyl)-3-phenylpropylamine L-hydrogen tartrate]", "values": [
      {"measurement": "potency in the bladder relative to oxybutynin", "setting": "[1]", "result": "equipotent with oxybutynin"},
      {"measurement": "affinity for muscarinic receptors of the salivary gland relative to oxybutynin", "setting": "[2]", "result": "eight times lower"}
    ]}
  ]
}
